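Tested at 5 concentrations; 48 h exposure; 96-well plates; endpoints linearly interpolated, else capped at highest concentration. Here, GI50 denotes the concentration required for 50% inhibition of growth. TGI is the concentration that stops growth completely.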
How the values were obtained:
Test in all cases: NCI tumour cell line growth inhibition, 48 h
MDA-MB-231 breast = tested on: MDA-MB-231 breast
SK-MEL-28 melanoma = tested on: SK-MEL-28 melanoma
SF-268 CNS = tested on: SF-268 CNS
CCRF-CEM leukemia = tested on: CCRF-CEM leukemia
OVCAR-5 ovarian = tested on: OVCAR-5 ovarian
IGROV1 ovarian = tested on: IGROV1 ovarian
RXF 393 renal = tested on: RXF 393 renal
K-562 leukemia = tested on: K-562 leukemia
PC-3 prostate = tested on: PC-3 prostate
HCT-116 colon = tested on: HCT-116 colon
DU-145 prostate = tested on: DU-145 prostate
OVCAR-4 ovarian = tested on: OVCAR-4 ovarian
SNB-75 CNS = tested on: SNB-75 CNS
NCI-H23 lung = tested on: NCI-H23 lung
MCF7 breast = tested on: MCF7 breast
HL-60(TB) leukemia = tested on: HL-60(TB) leukemia
SN12C renal = tested on: SN12C renal
BT-549 breast = tested on: BT-549 breast
SK-OV-3 ovarian = tested on: SK-OV-3 ovarian
HOP-62 NSCLC = tested on: HOP-62 NSCLC
M14 melanoma = tested on: M14 melanoma
NCI/ADR-RES ovarian = tested on: NCI/ADR-RES ovarian
SR leukemia = tested on: SR leukemia
MDA-MB-468 breast = tested on: MDA-MB-468 breast
HCC-2998 colon = tested on: HCC-2998 colon
TK-10 renal = tested on: TK-10 renal
UACC-62 melanoma = tested on: UACC-62 melanoma
OVCAR-3 ovarian = tested on: OVCAR-3 ovarian
NCI-H460 lung = tested on: NCI-H460 lung
KM12 colon = tested on: KM12 colon

**Q.** Which TGI (MDA-MB-231 breast) does the source give for `COc1ccc(C(C)=C(c2ccc(OCCCN(C)C)cc2)c2ccc(OCCCN(C)C)cc2)cc1` here?
**A.** 4.23 µM

**Q.** And the GI50 (SK-MEL-28 melanoma)?
**A.** 2490 nM

**Q.** What about the TGI (SK-MEL-28 melanoma) of the same compound?
**A.** 5.07 µM

**Q.** And the GI50 (SF-268 CNS)?
**A.** 2800 nM

**Q.** What about the TGI (SF-268 CNS) of the same compound?
**A.** 5.94 µM

**Q.** And the GI50 (CCRF-CEM leukemia)?
**A.** 593 nM

**Q.** What about the TGI (CCRF-CEM leukemia) of the same compound?
**A.** 1960 nM

**Q.** And the GI50 (OVCAR-5 ovarian)?
**A.** 2820 nM

**Q.** And the TGI (OVCAR-5 ovarian)?
**A.** 5.55 µM

**Q.** What about the GI50 (IGROV1 ovarian) of the same compound?
**A.** 2960 nM

**Q.** And the TGI (IGROV1 ovarian)?
**A.** 5.75 µM

**Q.** And the GI50 (RXF 393 renal)?
**A.** 1090 nM

**Q.** And the TGI (RXF 393 renal)?
**A.** 3.92 µM

**Q.** And the GI50 (K-562 leukemia)?
**A.** 621 nM

**Q.** And the TGI (K-562 leukemia)?
**A.** 5.04 µM

**Q.** And the GI50 (PC-3 prostate)?
**A.** 2750 nM

**Q.** What about the TGI (PC-3 prostate) of the same compound?
**A.** 6.07 µM

**Q.** And the GI50 (HCT-116 colon)?
**A.** 795 nM

**Q.** And the TGI (HCT-116 colon)?
**A.** 3.21 µM

**Q.** And the GI50 (DU-145 prostate)?
**A.** 2100 nM

**Q.** What about the TGI (DU-145 prostate) of the same compound?
**A.** 4.6 µM

**Q.** What about the GI50 (OVCAR-4 ovarian) of the same compound?
**A.** 2220 nM

**Q.** And the TGI (OVCAR-4 ovarian)?
**A.** 5.22 µM

**Q.** What about the GI50 (SNB-75 CNS) of the same compound?
**A.** 2130 nM

**Q.** And the TGI (SNB-75 CNS)?
**A.** 4.66 µM

**Q.** What about the GI50 (NCI-H23 lung) of the same compound?
**A.** 2900 nM

**Q.** What about the TGI (NCI-H23 lung) of the same compound?
**A.** 5.88 µM

**Q.** What about the GI50 (MCF7 breast) of the same compound?
**A.** 418 nM

**Q.** And the TGI (MCF7 breast)?
**A.** 3.06 µM

**Q.** And the GI50 (HL-60(TB) leukemia)?
**A.** 735 nM

**Q.** What about the TGI (HL-60(TB) leukemia) of the same compound?
**A.** 3.03 µM

**Q.** What about the GI50 (SN12C renal) of the same compound?
**A.** 2950 nM

**Q.** What about the TGI (SN12C renal) of the same compound?
**A.** 5.72 µM

**Q.** And the GI50 (BT-549 breast)?
**A.** 3.2 µM

**Q.** And the TGI (BT-549 breast)?
**A.** 6.22 µM

**Q.** What about the GI50 (SK-OV-3 ovarian) of the same compound?
**A.** 3.26 µM

**Q.** And the TGI (SK-OV-3 ovarian)?
**A.** 6.19 µM

**Q.** And the GI50 (HOP-62 NSCLC)?
**A.** 3.08 µM

**Q.** And the TGI (HOP-62 NSCLC)?
**A.** 6.17 µM

**Q.** What about the GI50 (M14 melanoma) of the same compound?
**A.** 427 nM

**Q.** And the TGI (M14 melanoma)?
**A.** 930 nM

**Q.** And the GI50 (NCI/ADR-RES ovarian)?
**A.** 3.09 µM

**Q.** What about the TGI (NCI/ADR-RES ovarian) of the same compound?
**A.** 6.15 µM

**Q.** What about the GI50 (SR leukemia) of the same compound?
**A.** 523 nM

**Q.** And the TGI (SR leukemia)?
**A.** 1730 nM

**Q.** And the GI50 (MDA-MB-468 breast)?
**A.** 705 nM

**Q.** And the TGI (MDA-MB-468 breast)?
**A.** 3.01 µM

**Q.** What about the GI50 (HCC-2998 colon) of the same compound?
**A.** 2160 nM

**Q.** And the TGI (HCC-2998 colon)?
**A.** 4.79 µM

**Q.** And the GI50 (TK-10 renal)?
**A.** 3.38 µM

**Q.** And the TGI (TK-10 renal)?
**A.** 6.36 µM

**Q.** What about the GI50 (UACC-62 melanoma) of the same compound?
**A.** 2970 nM

**Q.** What about the TGI (UACC-62 melanoma) of the same compound?
**A.** 5.73 µM

**Q.** What about the GI50 (OVCAR-3 ovarian) of the same compound?
**A.** 678 nM

**Q.** And the TGI (OVCAR-3 ovarian)?
**A.** 2300 nM

**Q.** And the GI50 (NCI-H460 lung)?
**A.** 899 nM

**Q.** And the TGI (NCI-H460 lung)?
**A.** 3.43 µM

**Q.** What about the GI50 (KM12 colon) of the same compound?
**A.** 2600 nM

**Q.** And the TGI (KM12 colon)?
**A.** 5.5 µM

— PubChem BioAssay (NCI)
